Data as given in ChEMBL document CHEMBL1201862, “PubChem BioAssay data set” (2004).
Active and inactive are the calls of the source.

Tests used:
cells [1] = type: functional, cell-based
cells [2] = type: functional, cell-based; remark: listed apart in the source
[3] = inhibitors of intracellular T. cruzi replication, confirmation, NIH3T3 host cells, beta-gal luminescence (AID 2044); type: functional, cell-based;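 note: intracellular parasites grown in NIH/3T3 mouse fibroblasts as host cells; luminescent beta-galactosidase reporter signal from transgenic T. cruzi replicating inside host cells; inhibitors lower the luminescence signal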
[4] = growth suppression of PTEN-null colon cells, dose response, cell-based, HCT116 PTEN knockout (AID 1047); type: functional;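 note: HCT116 colon tumor cells with PTEN knocked out; cells exposed to compound for 60 hours before readout; potency for loss of cell viability measured by luminescence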
[5] = cytotoxicity toward NIH3T3 fibroblasts, dose response, counter-screen, cell-based, ATP luminescence, mouse fibroblasts (AID 2010); type: functional;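 note: cells exposed to compound for about 90 hours before reading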
[6] = growth suppression of beta-catenin-knockout colon cells, dose response, cell-based, HCT116, human colon tumor (AID 1045); type: functional;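 note: HCT116 colon tumor cells with beta catenin knocked out; cells exposed to compound for 60 hours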
[7] = target: T1, Microphthalmia-associated transcription factor (Homo sapiens, UniProt O75030); assay: TRPM1 promoter luciferase signal decrease, dose response, MITF inhibitor project, cell-based, SK-MEL-5, cherry-picked, set 3 (AID 493073); type: functional
T1 sequence (O75030 whole entry): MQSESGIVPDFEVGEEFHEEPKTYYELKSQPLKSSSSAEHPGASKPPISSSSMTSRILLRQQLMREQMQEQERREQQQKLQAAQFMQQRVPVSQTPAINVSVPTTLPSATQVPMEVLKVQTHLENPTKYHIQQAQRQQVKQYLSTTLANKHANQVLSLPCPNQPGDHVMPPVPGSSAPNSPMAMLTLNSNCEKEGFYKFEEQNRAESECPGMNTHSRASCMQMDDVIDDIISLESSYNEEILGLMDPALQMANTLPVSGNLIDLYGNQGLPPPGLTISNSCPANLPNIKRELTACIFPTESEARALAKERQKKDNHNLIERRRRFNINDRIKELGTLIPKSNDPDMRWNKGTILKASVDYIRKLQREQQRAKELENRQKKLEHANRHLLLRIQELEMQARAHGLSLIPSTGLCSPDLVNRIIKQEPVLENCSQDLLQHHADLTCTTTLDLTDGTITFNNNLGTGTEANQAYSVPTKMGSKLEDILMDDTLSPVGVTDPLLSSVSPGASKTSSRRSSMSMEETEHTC

Cytochrome P450 2C19 = Cytochrome P450 2C19 (Homo sapiens, UniProt P33261); assay: Cytochrome panel assay with activity outcomes. Panel member name: p450-cyp2c19 Compounds with AC50 equal or less than 10 uM are considered active; type: functional; settings: read-out: AC50
Cytochrome P450 2C19, sequence (P33261 whole entry): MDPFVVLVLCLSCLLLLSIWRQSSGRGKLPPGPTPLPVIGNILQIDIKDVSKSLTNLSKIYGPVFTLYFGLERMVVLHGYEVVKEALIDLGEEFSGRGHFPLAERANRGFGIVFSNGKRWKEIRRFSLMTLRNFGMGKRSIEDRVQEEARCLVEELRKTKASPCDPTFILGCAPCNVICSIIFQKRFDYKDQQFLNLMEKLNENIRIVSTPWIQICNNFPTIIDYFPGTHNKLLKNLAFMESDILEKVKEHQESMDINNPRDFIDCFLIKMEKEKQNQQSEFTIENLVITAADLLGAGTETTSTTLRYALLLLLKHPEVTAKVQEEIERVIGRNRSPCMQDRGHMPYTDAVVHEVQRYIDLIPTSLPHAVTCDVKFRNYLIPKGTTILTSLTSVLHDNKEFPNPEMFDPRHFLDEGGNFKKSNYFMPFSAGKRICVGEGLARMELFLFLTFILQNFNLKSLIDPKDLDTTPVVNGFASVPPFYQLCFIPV

[8] = target: 26S proteasome non-ATPase regulatory subunit 14 (Homo sapiens, UniProt O00487); assay: inhibition of proteasome subunit RPN11 – biochemical, fluorescence polarization, uHTS hits, confirmation (AID 602368); type: functional
26S proteasome non-ATPase regulatory subunit 14, sequence (O00487 whole entry): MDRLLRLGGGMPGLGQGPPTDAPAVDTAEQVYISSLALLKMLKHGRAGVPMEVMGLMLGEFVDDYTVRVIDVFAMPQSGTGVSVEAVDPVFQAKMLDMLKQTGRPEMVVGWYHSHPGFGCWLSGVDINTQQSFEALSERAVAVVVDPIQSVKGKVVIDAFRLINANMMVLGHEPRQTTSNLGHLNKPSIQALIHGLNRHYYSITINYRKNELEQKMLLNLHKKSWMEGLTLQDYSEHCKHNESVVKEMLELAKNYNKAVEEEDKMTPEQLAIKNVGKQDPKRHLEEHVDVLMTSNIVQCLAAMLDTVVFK

[9] = target: 72 kDa type IV collagenase (Homo sapiens, UniProt P08253); assay: Dose Response validation of uHTS RPN11 inhibitor hits using a MMP-2 Fluorescence assay.; type: functional
72 kDa type IV collagenase, sequence (P08253 whole entry): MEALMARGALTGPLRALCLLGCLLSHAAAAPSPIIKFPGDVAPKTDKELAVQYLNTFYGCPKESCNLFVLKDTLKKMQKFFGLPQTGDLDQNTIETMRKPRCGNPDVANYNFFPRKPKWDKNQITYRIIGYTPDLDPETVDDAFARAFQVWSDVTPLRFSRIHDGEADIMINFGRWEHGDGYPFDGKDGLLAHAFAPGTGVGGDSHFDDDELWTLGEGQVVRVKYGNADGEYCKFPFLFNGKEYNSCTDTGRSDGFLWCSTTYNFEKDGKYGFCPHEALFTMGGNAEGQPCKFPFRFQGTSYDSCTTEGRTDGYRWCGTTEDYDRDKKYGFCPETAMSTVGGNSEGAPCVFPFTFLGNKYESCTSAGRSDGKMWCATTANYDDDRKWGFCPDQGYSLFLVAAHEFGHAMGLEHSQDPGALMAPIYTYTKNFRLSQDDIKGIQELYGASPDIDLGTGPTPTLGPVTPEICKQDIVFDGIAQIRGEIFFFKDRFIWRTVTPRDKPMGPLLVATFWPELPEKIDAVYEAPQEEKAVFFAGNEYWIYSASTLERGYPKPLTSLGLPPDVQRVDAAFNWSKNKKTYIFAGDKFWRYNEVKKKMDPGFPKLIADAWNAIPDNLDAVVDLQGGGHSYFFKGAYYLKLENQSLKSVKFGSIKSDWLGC

Prothrombin = Prothrombin (Bos taurus, UniProt P00735); assay: thrombin inhibition, dose response, biochemical, fluorescence polarization, uHTS hits (AID 602369); type: functional
Cytochrome P450 3A4 = Cytochrome P450 3A4 (Homo sapiens, UniProt P08684);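 note: CYP3A4 tested as one member of a cytochrome P450 panel screen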
Cytochrome P450 3A4, sequence (P08684 whole entry): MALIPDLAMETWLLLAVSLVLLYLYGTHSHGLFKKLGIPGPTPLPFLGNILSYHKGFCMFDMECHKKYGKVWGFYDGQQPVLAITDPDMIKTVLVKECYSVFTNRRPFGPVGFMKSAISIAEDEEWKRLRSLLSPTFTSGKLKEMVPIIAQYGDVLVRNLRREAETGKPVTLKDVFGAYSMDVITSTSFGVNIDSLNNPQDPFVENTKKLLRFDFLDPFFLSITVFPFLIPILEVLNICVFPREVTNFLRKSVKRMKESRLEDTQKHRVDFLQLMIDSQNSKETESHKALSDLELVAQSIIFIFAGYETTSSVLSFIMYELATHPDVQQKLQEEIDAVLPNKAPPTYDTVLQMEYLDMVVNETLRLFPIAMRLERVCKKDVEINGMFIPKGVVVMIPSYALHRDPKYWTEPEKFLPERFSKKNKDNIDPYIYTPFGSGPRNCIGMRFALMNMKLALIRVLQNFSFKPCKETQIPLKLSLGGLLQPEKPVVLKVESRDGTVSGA

[10] = NIH-3T3 fibroblast cytotoxicity, dose response, cytotoxicity control, cell-based, fluorescence, Alamar Blue, secondary assay (AID 2327); type: functional;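 note: NIH-3T3 mouse fibroblasts cultured with fluconazole at 8 µg/mL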
[11] = C. albicans growth with fluconazole, confirmation, fluorescence, retest (AID 2467); type: functional, cell-based
INS1 = assay: beta cell apoptosis inhibitors, cytokine rescue, dose response, luminescence, retest (AID 449756); type: functional, cell-based; settings: Rattus norvegicus;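 note: cell death triggered by IL-1 beta plus TNF-alpha plus IFN-gamma mixture; protective hits raise ATP signal compared with cytokine alone wells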
[12] = target: T2, Probable nicotinate-nucleotide adenylyltransferase (Staphylococcus aureus (strain N315), UniProt P65502); type: functional, Staphylococcus aureus subsp. aureus N315;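 for IC50 Mean: confirmatory dose-response retesting of NadD inhibitor hits first found in an ultra-high-throughput screen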
T2 sequence (P65502 whole entry): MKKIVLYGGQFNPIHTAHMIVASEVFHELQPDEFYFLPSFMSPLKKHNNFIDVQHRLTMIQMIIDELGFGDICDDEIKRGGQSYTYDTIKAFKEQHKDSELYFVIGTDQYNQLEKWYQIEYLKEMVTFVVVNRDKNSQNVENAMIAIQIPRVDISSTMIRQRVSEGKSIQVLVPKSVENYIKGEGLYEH

[13] = target: T2, Probable nicotinate-nucleotide adenylyltransferase; type: functional, Staphylococcus aureus subsp. aureus N315; settings: read-out: IC50_Mean
[14] = target: T3, Low molecular weight phosphotyrosine protein phosphatase (Homo sapiens, UniProt P24666); type: functional; settings: read-out: IC50_Mean;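 note: Dose-response confirmation assay measuring inhibition of LMPTP enzyme activity by fluorescence intensity read-out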
T3 sequence (P24666 whole entry): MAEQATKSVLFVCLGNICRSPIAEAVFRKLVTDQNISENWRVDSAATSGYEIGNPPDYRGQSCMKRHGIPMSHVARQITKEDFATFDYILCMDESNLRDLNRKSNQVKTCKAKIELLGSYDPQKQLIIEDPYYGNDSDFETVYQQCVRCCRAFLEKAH

[15] = inhibitors of HIV Env-driven cell fusion, dose response, cherry-pick (AID 652057); type: functional, cell-based
[16] = CEM21 lymphoblast cell cytotoxicity, dose response, cytotoxicity control for viral fusion inhibitor project, CellTiter-Glo luminescence, cherry-picked (AID 652042); type: functional, cell-based;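 note: potency for signal decrease meaning cytotoxicity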
[17] = ZM109 Env clade C HIV-1 fusion inhibitors, dose response, HeLa effector, CEM target cells, luciferase, cherry-pick (AID 652058); type: functional, cell-based
Paired box protein Pax-8 = Paired box protein Pax-8 (Homo sapiens, UniProt Q06710); assay: inhibitors of PAX8-driven TPO luciferase reporter, dose response, RMG-I cells, cherry-pick (AID 687027); type: functional, cell-based;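 note: luciferase reporter driven by Pax8 target thyroperoxidase promoter measured by SteadyGlo luminescence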
Paired box protein Pax-8, sequence (Q06710 whole entry, the tested form may be a part): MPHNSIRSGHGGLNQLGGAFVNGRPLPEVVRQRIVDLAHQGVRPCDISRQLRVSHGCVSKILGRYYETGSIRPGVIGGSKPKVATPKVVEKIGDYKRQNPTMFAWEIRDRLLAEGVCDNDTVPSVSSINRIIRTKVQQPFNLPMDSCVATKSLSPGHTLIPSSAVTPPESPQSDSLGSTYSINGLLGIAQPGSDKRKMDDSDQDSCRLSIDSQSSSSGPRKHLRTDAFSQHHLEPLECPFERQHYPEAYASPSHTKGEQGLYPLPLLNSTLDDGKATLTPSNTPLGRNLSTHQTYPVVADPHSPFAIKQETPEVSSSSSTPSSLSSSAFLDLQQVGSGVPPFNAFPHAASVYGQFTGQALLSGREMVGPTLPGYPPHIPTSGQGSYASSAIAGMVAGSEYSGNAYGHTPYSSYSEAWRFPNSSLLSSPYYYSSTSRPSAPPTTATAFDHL

[18] = off-target signal loss in HeLa-CEM21 co-culture – HeLa F-luc CTL cells, cherry-picked, counter-screen for HIV-1 Env fusion inhibitor project, dose response (AID 652040); type: functional, cell-based;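 note: potency for signal decrease marking cytotoxic or nonspecific inhibition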
[19] = inhibitors of clade B AD8 Env fusion, dose response, cell-based, cherry-pick (AID 652062); type: functional;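 note: luciferase signal from cell-cell fusion driven by HIV-1 clade B AD8 Env; potency is for inhibitors of fusion seen as a drop in luminescence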
[20] = non-specific cell cytotoxicity, dose response, cytotoxicity control for PAX8 inhibitor project, plate reader, dry powder samples (AID 743021); type: functional, cell-based
[21] = HEK293T cytotoxicity, dose response, cytotoxicity control for miR-122 modulator project, cell-based, inhibitor set, cherry-pick, set 2 (AID 720697); type: functional

O=C(NCCc1ccccc1)Oc1ccc(Cl)cc1
IC50 (cells [1]): > 29.9 µM (inactive) | EC50 (cells [2]): > 29.9 µM (inactive)

Cc1cc2ncn(/N=C/c3ccc([N+](=O)[O-])o3)c2cc1C
EC50 [3]: 195 nM (active) | EC50 [4]: 6.44 µM (active) | EC50 [5]: 15.5 µM (active) | EC50 [6]: 5.7 µM (active) | AC50 [7]: 21.9 µM (active) | AC50 (Cytochrome P450 2C19): 1.12 µM (inconclusive) | IC50 [8]: 73.6 µM (active) | IC50 [9]: > 100 µM (inactive) | IC50 (Prothrombin): 51.4 µM (active) | AC50 (Cytochrome P450 3A4): 15.8 µM (inconclusive)

O=C(N/N=C/c1sc(N2CCOCC2)nc1-c1ccccc1)c1cccc(S(=O)(=O)N2CCCC2)c1
EC50 [10]: 49.2 µM (active) | EC50 [11]: 3.31 µM (active) | AC50 (INS1): 2.44 µM (active) | IC50 [8]: 19.6 µM (active) | IC50 [9]: > 100 µM (inactive) | IC50 (Prothrombin): 24.5 µM (active)

O=C(N/N=C/C=C\c1ccccc1[N+](=O)[O-])c1cc(-c2ccc3ccccc3c2)[nH]n1
IC50 [12]: 22.5 µM (active) | IC50 [13]: 74.3 µM (active)

Cc1cc(N2CCN(C(C(=O)NC3CCCC3)c3ccco3)CC2)c2ccccc2n1 (centres undefined)
IC50 [14]: 27.3 µM (inactive)

CC(=NNc1ccc2ccccc2n1)c1ccccn1
AC50 [15]: 3.13 µM (active) | AC50 [16]: 399 nM (active) | AC50 [17]: 10.7 µM (active) | AC50 (Paired box protein Pax-8): 2.27 µM (active) | AC50 [18]: 8.41 µM (active) | AC50 [19]: 5 µM (active) | AC50 [20]: 59.5 µM (active)

CNC(=O)C[C@H]1CC[C@@H]2[C@H](COc3ccc(NC(=O)C(C)C)cc3C(=O)N2C)O1
AC50 [21]: 9.62 µM (active)
